Where “and” joins values, the source holds several entries; their conditions need not be identical. Equal entries are not always repeated. Calls of active or inactive are those of the source.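 The calls were made as follows: active = compounds giving half or more protection of infected cells from virus-caused growth loss, again on retest; inactive = the rest.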
Test system: CEM cells HIV-1 protection, formazan growth assay
Assay: NCI AIDS Antiviral Assay
Conditions: for IC50: measured here: growth of uninfected CEM cells
How it was run: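 Human CEM cells, uninfected and HIV-1-infected, received five drug concentrations, and growth was read by soluble formazan assay. Compounds giving at least 50% protection were retested; reproducible 100% protection defined confirmed active.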

Q: Which results are given for `Cc1cc(Cl)ccc1N=C1NC(=O)C(CC(=O)Nc2ccc([N+](=O)[O-])cc2[N+](=O)[O-])S1` (stereo not drawn)?
A: EC50: > 77.6 µM; IC50: 67.6 µM

Q: What does the source list for `C#CCN1C(=O)c2ccccc2S1(=O)=O.[C-]#[O+].[C-]#[O+].[C-]#[O+].[C-]#[O+].[C-]#[O+].[C-]#[O+].[Co].[Co]`?
A: EC50: > 200 µM; IC50: 7.08 µM

Q: For `Cc1ccc(S(=O)(=O)N/N=C/c2oc(-c3ccncc3)c(-c3ccncc3)c2[N+](=O)[O-])cc1`, which EC50 is on record?
A: > 15.5 µM

Q: What about the IC50 of the same molecule?
A: > 15.5 µM

Q: How did the EC50 turn out when `CC1=NC(C)(C)CC2CCC(O)C12` (stereo not drawn) was run?
A: > 200 µM

Q: What about the IC50 of the same molecule?
A: > 200 µM

Q: Which EC50 does the source give for `Cc1ccc(-c2c(C#N)c(N)nc3c2CCS(=O)(=O)c2ccccc2-3)cc1` here?
A: > 200 µM

Q: And the IC50?
A: 77.6 µM

Q: Which results are given for `CC1(C)OCC=CCO1`?
A: EC50: > 200 µM; IC50: > 200 µM

Q: `COC(=O)C1(CCCCCBr)CCCCCCCCCCC1=O` (stereo not drawn) was tested. Which EC50 did it give?
A: > 200 µM

Q: What about the IC50 of the same molecule?
A: 35.5 µM

Q: How did the EC50 turn out when `C=CCCCN1C(=O)C2C3c4ccccc4C(C=O)(c4ccccc43)C2C1=O` (stereo not drawn) was run?
A: > 200 µM

Q: What about the IC50 of the same molecule?
A: 7.24 µM

Q: What does the source list for `Cn1c2ccc(Cl)cc2c2oc(-c3nn[nH]n3)cc(=O)c21`?
A: EC50: > 200 µM; IC50: 174 µM

Q: `Oc1ccc(Oc2cc3c(cc2Oc2ccc(O)cc2)-c2nc-3nc3[nH]c(nc4nc(nc5[nH]c(n2)c2cc(Oc6ccc(O)cc6)c(Oc6ccc(O)cc6)cc52)-c2cc(Oc5ccc(O)cc5)c(Oc5ccc(O)cc5)cc2-4)c2cc(Oc4ccc(O)cc4)c(Oc4ccc(O)cc4)cc32)cc1` was tested. Which EC50 did it give?
A: > 50.1 µM

Q: And the IC50?
A: 22.9 µM

Q: With `N#CNC(N)=NCc1ccccc1` as the molecule, how does the EC50 read?
A: 155 µM

Q: And the IC50?
A: 204 µM

Q: `CC1=C(C#N)C2C(=C(N)Oc3ccccc32)C(N)=N1` (stereo not drawn) was tested. Which EC50 did it give?
A: > 200 µM

Q: What about the IC50 of the same molecule?
A: 27.5 µM

Q: With `C1Cc2nnnn2C1` as the molecule, how does the EC50 read?
A: > 2290 µM

Q: What about the IC50 of the same molecule?
A: > 2290 µM

Q: What does the source list for `C[C@]12CCC3[C@@H](CC[C@@H]4c5nonc5CC[C@]34C)C1CCC(=O)N2` (stereo partly drawn)?
A: EC50: > 97.7 µM; IC50: > 97.7 µM

Q: For `O=C1C=CC(=O)c2c1ccc1c3ccccc3n(-c3cccc([N+](=O)[O-])c3)c21`, which EC50 is on record?
A: > 100 µM

Q: And the IC50?
A: 4.79 µM

Q: How did the outcome turn out when `COc1cc2cc(c1Cl)N(C)C(=O)C[C@H](OC(=O)[C@H](C)N(C)C(C)=O)[C@]1(C)O[C@H]1[C@H](C)[C@@H]1C[C@@](O)(NC(=O)O1)[C@H](OC)C=C/C=C(\C)C2` was run?
A: inactive

Q: For `Cc1cc(NS(=O)(=O)c2ccc(Nc3c4ccccc4nc4c(C(=O)N5CCN(CCO)CC5)ccc(Cl)c34)cc2)no1`, which EC50 is on record?
A: > 47.9 µM

Q: And the IC50?
A: > 47.9 µM

Q: For `COc1cccc(-c2nnc(N)o2)c1`, which outcome is on record?
A: inactive

Q: For `CCOC(=O)C1=CC(C(C)CC(=O)CC(=O)O)CC1` (stereo not drawn), which outcome is on record?
A: active

Q: With `COc1cc2nc(/C=C/c3nc4cc(OC)c(OC)cc4[nH]3)[nH]c2cc1OC` as the molecule, how does the EC50 read?
A: > 200 µM

Q: And the IC50?
A: 57.5 µM

Q: Which EC50 does the source give for `COC(=O)c1ccccc1C1CN=NC12Cc1ccccc1C2=O` (stereo not drawn) here?
A: > 200 µM

Q: And the IC50?
A: 120 µM

Q: With `O=C1c2cccc(NCCCNCCO)c2C(=O)c2cccc(NCCCNCCO)c21` as the molecule, how does the outcome read?
A: inactive

Q: For `COc1cc(NCCN2CCN(CCNc3cc(OC)cc4cccnc34)CC2)c2ncccc2c1`, which EC50 is on record?
A: > 50.1 µM

Q: And the IC50?
A: 45.7 µM

Q: Which EC50 does the source give for `COC(=O)C1CC2c3ccccc3C1c1ccccc12` (stereo not drawn) here?
A: > 200 µM

Q: What about the IC50 of the same molecule?
A: > 200 µM

Q: With `O=c1cc(N2CCN(c3cc(=O)n4ccccc4n3)CC2)oc2ccccc12` as the molecule, how does the EC50 read?
A: > 200 µM

Q: And the IC50?
A: > 200 µM

Q: `O=C(/C=C/c1ccccc1)c1cccs1` was tested. Which EC50 did it give?
A: > 200 µM

Q: And the IC50?
A: 3.72 µM

Q: For `CC1(OCc2ccccc2)C(=O)N2C1NCC2(C)C` (stereo not drawn), which EC50 is on record?
A: > 251 µM

Q: What about the IC50 of the same molecule?
A: 117 µM

Q: `CS/C(=N\N=C(/C)c1ccccn1)SS/C(=N/N=C(\C)c1ccccn1)SC` was tested. Which EC50 did it give?
A: > 2 µM

Q: And the IC50?
A: 0.00741 µM

Q: Which EC50 does the source give for `CCN(CC)c1cccc2c1/C(=N/O)CCCC2` here?
A: > 200 µM

Q: And the IC50?
A: 120 µM

Q: Which results are given for `NC1CC(=O)c2cc(Br)sc21` (stereo not drawn)?
A: EC50: > 200 µM; IC50: > 200 µM

Q: Which EC50 does the source give for `OC1=CN=C(C2CC2)Oc2ccccc21` here?
A: > 178 µM

Q: And the IC50?
A: 117 µM

Q: For `CN(C)c1ncnc2c1ncn2C1C=CC(COS(N)(=O)=O)C1` (stereo not drawn), which EC50 is on record?
A: > 200 µM

Q: What about the IC50 of the same molecule?
A: > 200 µM

Q: For `CCN(CC)CCNC(=O)C1COc2ccc(-c3cc(=O)c4ccccc4o3)cc2O1` (stereo not drawn), which outcome is on record?
A: inactive

Q: For `Cc1ccccc1N(CCC#N)C1=NN(C(=O)CC(=O)Nc2ccccc2)C(c2ccccc2)C1` (stereo not drawn), which EC50 is on record?
A: > 77.6 µM

Q: And the IC50?
A: > 77.6 µM

Q: With `O=C(OCCN=c1c2ccccc2ccc2ccccc12)c1cc([N+](=O)[O-])cc([N+](=O)[O-])c1` as the molecule, how does the EC50 read?
A: > 200 µM

Q: And the IC50?
A: 158 µM

Q: Which EC50 does the source give for `Cc1ccc(S(=O)(=O)NC(=O)NC23CC4CC(CC(F)(C4)C2)C3)cc1` here?
A: > 676 µM

Q: What about the IC50 of the same molecule?
A: 339 µM

Q: What does the source list for `CC(C)(C)[Si](C)(C)OC1(CCc2ccccc2OS(=O)(=O)C(F)(F)F)CCCC=C1COCc1ccccc1` (stereo not drawn)?
A: EC50: > 200 µM; IC50: 39.8 µM

Q: With `CCCC(=O)OC1C(OC(=O)CCC)C(OC(=O)CCC)C(OC(=O)CCC)C(OC(=O)CCC)C1OC(=O)CCC` (stereo not drawn) as the molecule, how does the EC50 read?
A: > 417 µM

Q: And the IC50?
A: > 417 µM

Q: Which EC50 does the source give for `COc1cc(OC)cc(N(C)Cc2cnc3nc(N)nc(N)c3c2C)c1` here?
A: > 200 µM

Q: What about the IC50 of the same molecule?
A: 0.138 µM

Q: For `CC[C@@]1(O)C[C@H](OC2CC(N(C)C)C(OC3CC(O)C(OC4CCC(=O)C(C)O4)C(C)O3)C(C)O2)c2c(cc3c(c2O)C(=O)c2c(O)ccc(O)c2C3=O)[C@H]1C(=O)OC` (stereo partly drawn), which EC50 is on record?
A: > 6.31 µM

Q: And the IC50?
A: 0.0055 µM and 0.0158 µM

Q: `CCNCC1c2ccccc2-c2nc3ccccc3nc2-c2ccccc21` was tested. Which EC50 did it give?
A: > 60.3 µM

Q: What about the IC50 of the same molecule?
A: 8.32 µM

Q: What does the source list for `c1ccc(CSC2(SCc3ccccc3)CCCCC2)cc1`?
A: EC50: > 200 µM; IC50: 77.6 µM

Q: Which results are given for `O=C(Nc1ccn(C2CC(O)C(COC(c3ccccc3)(c3ccccc3)c3ccccc3)O2)c(=O)n1)c1ccccc1` (stereo not drawn)?
A: EC50: > 200 µM; IC50: 7.41 µM

Q: Which EC50 does the source give for `Cn1c(-c2ccccc2)cc(-c2cccs2)c1-c1ccsc1` here?
A: > 200 µM

Q: And the IC50?
A: 182 µM

Q: Which EC50 does the source give for `O=C1c2ccccc2Sc2ccccc2N1CCCCCN1CCN(c2ccc(F)cc2)CC1` here?
A: > 200 µM

Q: And the IC50?
A: 8.91 µM

Q: Which EC50 does the source give for `C=C1C(=O)OC2/C=C(\C)C3OC3/C=C(/C(=O)OC)C(O)C(OC(=O)C3(C)OC3C)C12` (stereo not drawn) here?
A: > 120 µM

Q: What about the IC50 of the same molecule?
A: 0.302 µM

Q: `O=C1CCSC2=C1SCc1sccc12` was tested. Which outcome did it give?
A: inactive

Q: `CC/C(=N/O)C(C)C(=O)CCC(=O)Nc1ccc(Cl)cc1` (stereo not drawn) was tested. Which EC50 did it give?
A: > 83.2 µM

Q: And the IC50?
A: > 83.2 µM

Q: For `O=C1C=CC2(CCC23C=CC(=O)O3)O1` (stereo not drawn), which EC50 is on record?
A: > 135 µM

Q: What about the IC50 of the same molecule?
A: 7.94 µM

Q: `O=c1[nH]c2ccccc2nc1/C=C(\O)c1ccccc1O` was tested. Which EC50 did it give?
A: > 13.5 µM

Q: And the IC50?
A: > 13.5 µM

Q: With `Nc1nc2ccccc2n1CC(=O)NC12CC3CC(CC(C3)C1)C2` as the molecule, how does the EC50 read?
A: > 79.4 µM

Q: What about the IC50 of the same molecule?
A: 36.3 µM

Q: Which EC50 does the source give for `CC(C)(C)OC(=O)CC(NC(=O)OC(C)(C)C)C(=O)N[C@@H]1CCCC[C@H]1C(=O)OCc1ccccc1` (stereo partly drawn) here?
A: > 200 µM

Q: What about the IC50 of the same molecule?
A: 10.5 µM

Q: `COC(=O)c1cc(C(c2cc(C(=O)OC)c(OC)c(Br)c2C)C(Cl)(Cl)Cl)c(C)c(Br)c1OC` was tested. Which EC50 did it give?
A: > 200 µM

Q: And the IC50?
A: 25.7 µM

Q: For `CCOP(=O)(OCC)C1CCCCOC1=O` (stereo not drawn), which outcome is on record?
A: inactive

Q: For `O=C1CC(CC(O)C(O)C(O)CO)CC(=O)N1` (stereo not drawn), which EC50 is on record?
A: > 200 µM

Q: What about the IC50 of the same molecule?
A: > 200 µM

Q: How did the EC50 turn out when `O=C1NC(=O)[C@@]2(CC[C@@H](O)C2)c2ccncc21` was run?
A: > 562 µM

Q: And the IC50?
A: 447 µM

Q: Which EC50 does the source give for `Cc1nc(N)sc1C(=O)/C=C\c1ccc2c(c1)OCO2` here?
A: > 871 µM

Q: What about the IC50 of the same molecule?
A: 437 µM

Q: Which EC50 does the source give for `N=C1C(=O)NC(=O)C1c1ccccc1` (stereo not drawn) here?
A: > 200 µM

Q: What about the IC50 of the same molecule?
A: 151 µM

Q: What does the source list for `CC(C)CCC[C@@H](C)C1CCC2[C@@H]3CCC4CC(CCC=C(c5cc(Cl)c(OC(=O)c6ccccc6)c(C(=O)O)c5)c5cc(Cl)c(OC(=O)c6ccccc6)c(C(=O)O)c5)CC[C@]4(C)C3CC[C@@]21C` (stereo partly drawn)?
A: EC50: > 200 µM; IC50: 141 µM

Q: `OC1[C@H](O)CN(OCc2ccccc2)C[C@@H]1O` (stereo partly drawn) was tested. Which EC50 did it give?
A: > 200 µM

Q: And the IC50?
A: > 200 µM

Reference: PubChem BioAssay AID179 (DTP/NCI, 2004)
